Where a name gives a salt, the structure may show the parent alone. Read-outs that look alike come from different tables or passages of the source.
How the values were obtained:
GABA-AT [1] = target: T1, GABA-AT (Sus scrofa, UniProt P80147); conditions: cited from earlier work
T1 construct: purchased

GABA-AT [2] = target: T1, GABA-AT; experiment: Time-dependent inactivation of GABA-AT; type: biochemical
Excerpt: Fluorine incorporation may also make a corresponding intermediate sufficiently reactive to be trapped by the enzyme. While the cis isomer is shown in Scheme 6.
Then a secondary plot of half-life versus the reciprocal of inactivator concentration was obtained to determine KI and kinact.

GABA-AT [3] = target: T1, GABA-AT; conditions: as substrate of GABA-AT; cited from earlier work

T1 sequence (P80147 29-500): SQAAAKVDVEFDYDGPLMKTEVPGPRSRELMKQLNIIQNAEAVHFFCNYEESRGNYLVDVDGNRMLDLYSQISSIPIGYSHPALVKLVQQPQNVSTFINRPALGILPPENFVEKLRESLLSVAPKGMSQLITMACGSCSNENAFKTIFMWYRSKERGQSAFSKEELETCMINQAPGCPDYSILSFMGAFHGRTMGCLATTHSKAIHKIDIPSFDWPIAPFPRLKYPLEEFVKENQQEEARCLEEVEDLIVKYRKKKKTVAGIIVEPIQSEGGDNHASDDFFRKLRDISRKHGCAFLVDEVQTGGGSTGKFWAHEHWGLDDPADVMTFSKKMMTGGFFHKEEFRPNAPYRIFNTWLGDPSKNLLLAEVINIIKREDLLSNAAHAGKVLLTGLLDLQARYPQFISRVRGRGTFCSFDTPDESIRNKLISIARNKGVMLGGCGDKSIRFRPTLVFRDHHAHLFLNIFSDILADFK

C=C1C[C@H](C(=O)O)C[C@@H]1N [Compound 7, 3β-Amino-4-methylenylcyclopentane-1β-carboxylic acid]
GABA-AT inactivation (in words) (GABA-AT [1]; 2-mercaptoethanol added to the incubation mixture): no inactivation was observed | GABA-AT inactivation (in words) (GABA-AT [1]; no 2-mercaptoethanol added): inactivated GABA-AT

NC1CC(C(=O)O)C/C1=C\F [Compound 20, (E)-(1S, 3S)-3-Amino-4-fluoromethylenyl-1-cyclopentanoic acid, hydrochloride salt]
time-dependent inhibition of GABA-AT (in words) (GABA-AT [2]): potent time-dependent inhibitors of GABA-AT

NC1CC(C(=O)O)C/C1=C/F [Compound 22, (Z)-(1S, 3S)-3-Amino-4-fluoromethylenyl-1-cyclopentanoic acid, hydrochloride salt]
time-dependent inhibition of GABA-AT (in words) (GABA-AT [2]): potent time-dependent inhibitors of GABA-AT

NCCCC(=O)O [GABA, γ-aminobutyric acid]
Km (GABA-AT [3]): 2400 µM | kcat (GABA-AT [3]): 0.817 s⁻¹

C=CC(N)CCC(=O)O (stereo not shown) [vigabatrin]
share of total inactivation accounted for by pathway a (Michael addition) (GABA-AT [1]): 70-75%

From patent US7381748B1, “Compounds and related methods for inhibition of gamma-aminobutyric acid aminotransferase” (Northwestern University, priority 2002, dated 2008)
